# Experimental data published in US10611740B2, “Aryl dihydro-2H-benzo[b][1,4]oxazine sulfonamide and related compounds for use as agonists of RORγ and the treatment of disease” (Lycera Corporation, priority 2015, dated 2020).
# Target: T1, RORγ-LBD (Homo sapiens, UniProt P51449)
# T1 construct: made in house; host or cells: SF9 cells (baculovirus)
# T1 sequence (P51449 269-508 limits assumed): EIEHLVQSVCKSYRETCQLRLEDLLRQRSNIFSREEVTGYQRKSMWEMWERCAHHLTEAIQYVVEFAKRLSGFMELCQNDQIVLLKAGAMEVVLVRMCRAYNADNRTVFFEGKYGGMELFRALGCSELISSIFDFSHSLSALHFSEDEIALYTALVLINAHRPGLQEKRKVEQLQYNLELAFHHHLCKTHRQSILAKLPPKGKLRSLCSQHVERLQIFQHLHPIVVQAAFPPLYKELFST
# Test: RORγ-Ligand Binding Domain (LBD) TR-FRET Assay;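 on TR-FRET Assay Max Response: 665/615 nm ratio relative to signal without ursolic acid or compound set at 100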
# Format: biochemical
# Description: Assay procedures and results are described below.
# HIS-tagged RORγ-LBD protein was expressed in SF9 cells using a baculovirus expression system. The lysate was diluted in assay buffer (50 mM Tris pH 7.0, 50 mM KCl, 1 mM EDTA, 0.1 mM DTT, 0.01% BSA) to obtain RORγ-LBD final concentration of ˜3 nM in a 384-well assay plate (need to titrate for each batch of protein).
# A stock of biotinylated-LXXLL peptide from coactivator SRC1 (Biotin-[…]) was prepared in assay buffer and added to each well (200 nM final concentration). […] RORγ antagonist ursolic acid was also included at a final concentration of 2 μM. Compounds were diluted in DMSO and further diluted in assay buffer with a final DMSO concentration at 1%.
Compound,EC50,TR-FRET Assay Max Response
"C[C@@H](C[C@H]1CN(S(=O)(=O)c2cccc(C(F)(F)F)c2)c2cc(-c3cc(Cl)cc(OC(F)F)c3)ccc2O1)C(=O)O [Compound 46R, (S)-3-((S)-6-(3-chloro-5-(difluoromethoxy)phenyl)-4-((3-(trifluoromethyl)phenyl)sulfonyl)-3,4-dihydro-2H-benzo[b][1,4]-oxazin-2-yl)-2-methylpropanoic acid]",< 500 nM,*** (The symbol “***” indicates a value in the range of greater than 150 to 200)
"C[C@@H](C[C@H]1CN(S(=O)(=O)c2cccc(C(F)(F)F)c2)c2cc(-c3cc(F)cc(F)c3)ccc2O1)C(=O)O [Compound 46S, (S)-3-((S)-6-(3,5-difluorophenyl)-4-((3-(trifluoromethyl)phenyl)-sulfonyl)-3,4-dihydro-2H-benzo[b][1,4]oxazin-2-yl)-2-methylpropanoic acid]",< 500 nM,*** (The symbol “***” indicates a value in the range of greater than 150 to 200)
"C[C@@H](C[C@H]1CN(S(=O)(=O)c2cccc(C(F)(F)F)c2)c2cc(-c3cccc(C(F)(F)F)n3)ccc2O1)C(=O)O [Compound 46T, (S)-2-methyl-3-((S)-4-((3-(trifluoromethyl)phenyl)sulfonyl)-6-(6-(trifluoromethyl)pyridin-2-yl)-3,4-dihydro-2H-benzo[b][1,4]-oxazin-2-yl)propanoic acid]",< 500 nM,*** (The symbol “***” indicates a value in the range of greater than 150 to 200)
"C[C@H](C[C@H]1CN(S(=O)(=O)c2cccc(C(F)(F)F)c2)c2cc(-c3cccc(C(F)(F)F)n3)ccc2O1)C(=O)O [Compound 46U, (R)-2-methyl-3-((S)-4-((3-(trifluoromethyl)phenyl)sulfonyl)-6-(6-(trifluoromethyl)pyridin-2-yl)-3,4-dihydro-2H-benzo[b][1,4]-oxazin-2-yl)propanoic acid]",< 500 nM,*** (The symbol “***” indicates a value in the range of greater than 150 to 200)
"O=C(O)C1(C[C@H]2CN(S(=O)(=O)c3cccc(C(F)(F)F)c3)c3cc(-c4cccc(C(F)(F)F)n4)ccc3O2)COC1 [Compound 51D, (S)-3-((4-((3-(trifluoromethyl)-phenyl)sulfonyl)-6-(6-(trifluoro-methyl)pyridin-2-yl)-3,4-dihydro-2H-benzo[b][1,4]oxazin-2-yl)methyl)oxetane-3-carboxylic acid]",< 500 nM,*** (The symbol “***” indicates a value in the range of greater than 150 to 200)
"O=C(O)C1(C[C@H]2CN(S(=O)(=O)c3cccc(C(F)(F)F)c3)c3cc(-c4cc(F)ccc4F)ccc3O2)CCOCC1 [Compound 57, (S)-4-((6-(2,5-difluorophenyl)-4-((3-(trifluoromethyl)phenyl)sulfonyl)-3,4-dihydro-2H-benzo[b][1,4]oxazin-2-yl)methyl)tetrahydro-2H-pyran-4-carboxylic acid]",< 500 nM,*** (The symbol “***” indicates a value in the range of greater than 150 to 200)
"O=C(O)[C@H]1C[C@@H]([C@H]2CN(S(=O)(=O)c3cccc(C(F)(F)F)c3)c3cc(-c4cc(F)ccc4F)ccc3O2)C1 [Compound 60H, (1R,3s)-3-((S)-6-(2,5-difluoro-phenyl)-4-((3-(trifluoromethyl)-phenyl)sulfonyl)-3,4-dihydro-2H-benzo[b][1,4]oxazin-2-yl)cyclobutane-1-carboxylic acid]",< 500 nM,** (The symbol “**” indicates a value in the range of greater than 90 to 150)
"O=C(O)[C@H]1C[C@H]([C@H]2CN(S(=O)(=O)c3cccc(C(F)(F)F)c3)c3cc(-c4cc(F)ccc4F)ccc3O2)C1 [Compound 60I, (1S,3r)-3-((S)-6-(2,5-difluoro-phenyl)-4-((3-(trifluoromethyl)-phenyl)sulfonyl)-3,4-dihydro-2H-benzo[b][1,4]oxazin-2-yl)cyclobutane-1-carboxylic acid]",< 500 nM,** (The symbol “**” indicates a value in the range of greater than 90 to 150)
"O=C(O)[C@H]1C[C@@H]([C@H]2CN(S(=O)(=O)c3cccc(C(F)(F)F)c3)c3cc(-c4cc(F)cc(OC(F)F)c4)ccc3O2)C1 [Compound 60J, (1R,3s)-3-((S)-6-(3-(difluoro-methoxy)-5-fluorophenyl)-4-((3-(trifluoromethyl)phenyl)-sulfonyl)-3,4-dihydro-2H-benzo[b][1,4]-oxazin-2-yl)cyclobutane-1-carboxylic acid]",< 500 nM,*** (The symbol “***” indicates a value in the range of greater than 150 to 200)
"O=C(O)[C@H]1C[C@H]([C@H]2CN(S(=O)(=O)c3cccc(C(F)(F)F)c3)c3cc(-c4cc(F)cc(OC(F)F)c4)ccc3O2)C1 [Compound 60K, (1S,3r)-3-((S)-6-(3-(difluoro-methoxy)-5-fluorophenyl)-4-((3-(trifluoromethyl)phenyl)-sulfonyl)-3,4-dihydro-2H-benzo[b][1,4]oxazin-2-yl)cyclobutane-1-carboxylic acid]",< 500 nM,** (The symbol “**” indicates a value in the range of greater than 90 to 150)
"O=C(O)[C@H]1C[C@@H]([C@H]2CN(S(=O)(=O)c3cccc(C(F)(F)F)c3)c3cc(-c4cccc(C(F)(F)F)n4)ccc3O2)C1 [Compound 71, (1R,3s)-3-((S)-4-((3-(trifluoromethyl)phenyl)sulfonyl)-6-(6-(trifluoromethyl)pyridin-2-yl)-3,4-dihydro-2H-benzo[b][1,4]oxazin-2-yl)cyclobutane-1-carboxylic acid]",< 500 nM,*** (The symbol “***” indicates a value in the range of greater than 150 to 200)
"O=C(O)[C@H]1C[C@H]([C@H]2CN(S(=O)(=O)c3cccc(C(F)(F)F)c3)c3cc(-c4cccc(C(F)(F)F)n4)ccc3O2)C1 [Compound 72, (1S,3r)-3-((S)-4-((3-(trifluoromethyl)phenyl)sulfonyl)-6-(6-(trifluoromethyl)pyridin-2-yl)-3,4-dihydro-2H-benzo[b][1,4]oxazin-2-yl)cyclobutane-1-carboxylic acid]",< 500 nM,** (The symbol “**” indicates a value in the range of greater than 90 to 150)
"O=C1CC[C@@](C[C@H]2CN(S(=O)(=O)c3cccc(C(F)(F)F)c3)c3cc(-c4cc(F)cc(OC(F)F)c4)ccc3O2)(C(=O)O)N1 [Compound 77C, (R)-2-(((S)-6-(3-(difluoro-methoxy)-5-fluorophenyl)-4-((3-(trifluoromethyl)phenyl)sulfonyl)-3,4-dihydro-2H-benzo[b][1,4]-oxazin-2-yl)methyl)-5-oxopyrrolidine-2-carboxylic acid]",< 500 nM,** (The symbol “**” indicates a value in the range of greater than 90 to 150)
"O=C1CC[C@](C[C@H]2CN(S(=O)(=O)c3cccc(C(F)(F)F)c3)c3cc(-c4cc(F)cc(OC(F)F)c4)ccc3O2)(C(=O)O)N1 [Compound 77D, (S)-2-(((S)-6-(3-(difluoro-methoxy)-5-fluorophenyl)-4-((3-(trifluoromethyl)phenyl)sulfonyl)-3,4-dihydro-2H-benzo[b][1,4]-oxazin-2-yl)methyl)-5-oxopyrrolidine-2-carboxylic acid]",< 500 nM,** (The symbol “**” indicates a value in the range of greater than 90 to 150)
"CC(=O)NC1(C[C@H]2CN(S(=O)(=O)c3cccc(C(F)(F)F)c3)c3cc(-c4cc(F)cc(OC(F)F)c4)ccc3O2)CCOCC1 [Compound 78I, (S)-N-(4-((6-(3-(difluoro-methoxy)-5-fluorophenyl)-4-((3-(trifluoromethyl)phenyl)sulfonyl)-3,4-dihydro-2H-benzo[b][1,4]-oxazin-2-yl)methyl)tetrahydro-2H-pyran-4-yl)acetamide]",< 500 nM,*** (The symbol “***” indicates a value in the range of greater than 150 to 200)
"CC(=O)NC1(C[C@H]2CN(S(=O)(=O)c3cccc(C(F)(F)F)c3)c3cc(-c4cc(F)ccc4F)ccc3O2)CCOCC1 [Compound 78J, (S)-N-(4-((6-(2,5-difluorophenyl)-4-((3-(trifluoromethyl)phenyl)-sulfonyl)-3,4-dihydro-2H-benzo[b][1,4]oxazin-2-yl)methyl)tetrahydro-2H-pyran-4 yl)acetamide]",< 500 nM,*** (The symbol “***” indicates a value in the range of greater than 150 to 200)
"C[C@@H](CC(=O)O)[C@H]1CN(S(=O)(=O)c2cccc(C(F)(F)F)c2)c2cc(-c3cc(F)cc(OC(F)F)c3)ccc2O1 [Compound 80A, (S)-3-((S)-6-(3-(difluoro-methoxy)-5-fluorophenyl)-4-((3-(trifluoromethyl)phenyl)sulfonyl)-3,4-dihydro-2H-benzo[b][1,4]-oxazin-2-yl)butanoic acid]",< 500 nM,*** (The symbol “***” indicates a value in the range of greater than 150 to 200)
